In patent US10174037B2, “Dihydropyrazolopyrimidinone compounds as PDE2 inhibitors” (Merck Sharp & Dohme Corp., priority 2015, dated 2019):
Like-named read-outs stand apart in the source and are kept apart here.

Key:
human PDE2A1 = human PDE2A1 (Homo sapiens (Human), UniProt O00408); test: PDE selectivity IMAP FP assay, human PDE2A1; assay type: biochemical; settings: Human PDE2
How it was run: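 IMAP fluorescence polarization assay; PDE2 substrate 50 nM FAM-cAMP containing 1000 nM cGMP, enzyme diluted for 20% substrate conversion, in 10 mM Tris HCl pH 7.2, 10 mM MgCl2, 1 mM DTT. Reaction 60 min at room temperature, stopped with IMAP binding solution; polarization read after 1 h. Ki reported.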

Rhesus PDE2A3 = Rhesus PDE2A3 (Macaca mulatta, UniProt B3VTJ2); test: PDE2 fluorescence polarization (IMAP FP) assay, rhesus PDE2A3; assay type: biochemical, rhesus macaque
[1] = Lab B, read-out: Human PDE2 Ki (nM) Lab B
[2] = Lab B, read-out: Rhesus PDE2 Ki (nM) Lab B
[3] = Lab A, read-out: Human PDE2 Ki (nM) Lab A
[4] = Lab A, read-out: Rhesus PDE2 Ki (nM) Lab A

Rhesus PDE2A3, sequence (B3VTJ2 1-941): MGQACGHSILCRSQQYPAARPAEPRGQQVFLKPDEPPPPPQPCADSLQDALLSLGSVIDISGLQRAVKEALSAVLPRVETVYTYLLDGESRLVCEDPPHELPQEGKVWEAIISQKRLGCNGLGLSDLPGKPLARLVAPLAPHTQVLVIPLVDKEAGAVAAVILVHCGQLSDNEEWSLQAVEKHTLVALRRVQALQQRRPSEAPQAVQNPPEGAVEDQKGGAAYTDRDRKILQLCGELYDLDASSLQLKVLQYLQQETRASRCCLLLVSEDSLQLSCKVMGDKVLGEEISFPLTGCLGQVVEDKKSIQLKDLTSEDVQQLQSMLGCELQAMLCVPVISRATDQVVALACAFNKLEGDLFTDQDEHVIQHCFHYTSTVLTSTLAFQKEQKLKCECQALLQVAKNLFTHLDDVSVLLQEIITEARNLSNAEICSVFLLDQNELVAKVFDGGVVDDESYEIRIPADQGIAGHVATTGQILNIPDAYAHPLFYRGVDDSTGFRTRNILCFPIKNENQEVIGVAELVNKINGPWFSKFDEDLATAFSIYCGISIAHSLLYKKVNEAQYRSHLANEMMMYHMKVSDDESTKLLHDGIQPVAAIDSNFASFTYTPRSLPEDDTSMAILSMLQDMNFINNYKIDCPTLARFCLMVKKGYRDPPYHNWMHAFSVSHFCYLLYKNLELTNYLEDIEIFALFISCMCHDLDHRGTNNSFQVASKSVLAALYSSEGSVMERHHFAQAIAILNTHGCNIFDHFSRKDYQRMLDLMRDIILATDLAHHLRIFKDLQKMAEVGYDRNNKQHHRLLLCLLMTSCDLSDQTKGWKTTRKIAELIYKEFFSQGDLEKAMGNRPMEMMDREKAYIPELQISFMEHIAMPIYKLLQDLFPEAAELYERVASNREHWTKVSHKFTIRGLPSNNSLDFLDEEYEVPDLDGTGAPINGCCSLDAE
human PDE2A1, sequence (O00408 other isoform, or with tags, fused parts or gaps): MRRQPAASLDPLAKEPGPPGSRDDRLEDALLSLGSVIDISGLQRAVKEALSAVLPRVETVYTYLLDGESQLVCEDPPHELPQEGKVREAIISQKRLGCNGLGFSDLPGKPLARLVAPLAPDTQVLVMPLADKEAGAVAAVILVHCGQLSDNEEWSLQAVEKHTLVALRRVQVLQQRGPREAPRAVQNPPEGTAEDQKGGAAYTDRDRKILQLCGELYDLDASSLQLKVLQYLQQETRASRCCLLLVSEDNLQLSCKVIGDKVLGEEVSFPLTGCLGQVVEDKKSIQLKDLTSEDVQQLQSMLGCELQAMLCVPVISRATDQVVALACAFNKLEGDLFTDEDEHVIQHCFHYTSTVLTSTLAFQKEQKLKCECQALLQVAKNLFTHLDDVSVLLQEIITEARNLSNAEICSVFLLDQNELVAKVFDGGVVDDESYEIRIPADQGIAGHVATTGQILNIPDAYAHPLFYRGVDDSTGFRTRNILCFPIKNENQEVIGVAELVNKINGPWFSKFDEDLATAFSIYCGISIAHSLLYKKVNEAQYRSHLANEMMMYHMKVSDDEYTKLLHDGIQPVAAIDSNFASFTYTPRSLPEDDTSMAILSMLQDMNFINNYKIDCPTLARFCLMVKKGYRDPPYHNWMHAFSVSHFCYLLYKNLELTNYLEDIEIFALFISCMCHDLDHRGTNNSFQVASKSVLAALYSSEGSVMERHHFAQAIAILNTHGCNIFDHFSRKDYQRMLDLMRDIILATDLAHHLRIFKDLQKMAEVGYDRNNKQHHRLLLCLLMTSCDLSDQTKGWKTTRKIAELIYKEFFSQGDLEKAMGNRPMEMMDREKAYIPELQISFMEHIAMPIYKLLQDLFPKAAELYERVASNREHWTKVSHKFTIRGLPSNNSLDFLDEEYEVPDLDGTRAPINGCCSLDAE

SMILES | Ki (human PDE2A1; [1]) [nM] | Ki (Rhesus PDE2A3; [2]) [nM] | Ki (human PDE2A1; [3]) [nM] | Ki (Rhesus PDE2A3; [4]) [nM]
CC(C)C(c1ccc(C(C)(F)F)cc1)n1nc(CF)c2c(=O)[nH]c(N(C)C)nc21 (single isomer, unassigned) [Example 206, (R)- or (S)-l-(1-(4-(1,1-Difluoroethyl)phenyl)-2-methylpropyl)-6-(dimethylamino)-3-(fluoromethyl)-1H-pyrazolo[3,4-d]pyrimidin-4(5H)-one] | 0.37 | 0.51 |  | 
CC(C)C(c1ccc(C(C)(F)F)cc1)n1nc(CF)c2c(=O)[nH]c(N(C)C)nc21 (single isomer, unassigned) [Example 207, (S)- or (R)-1-(1-(4-(1,1-Difluoroethyl)phenyl)-2-methylpropyl)-6-(dimethylamino)-3-(fluoromethyl)-1H-pyrazolo[3,4-d]pyrimidin-4(5H)-one] | 0.03 | 0.043 |  | 
CC(c1ccc(C(C)(F)F)cc1F)n1nc(CF)c2c(=O)[nH]c(N(C)C)nc21 (single isomer, unassigned) [Example 209, (S)- or (R)-1-(1-(4-(1,1-Difluoroethyl)-2-fluorophenyl)ethyl)-6-(dimethylamino)-3-(fluoromethyl)-1H-pyrazolo[3,4-d]pyrimidin-4(5H)-one] | 0.077 | 0.14 |  | 
CN(C)c1nc2c(c(CF)nn2C(c2ccc(C(C)(F)F)cc2)C2CC2)c(=O)[nH]1 (single isomer, unassigned) [Example 212, (R)- or (S)-1-(Cyclopropyl(4-(1,1-difluoroethyl)phenyl)methyl)-6-(dimethylamino)-3-(fluoromethyl)-1H-pyrazolo[3,4-d]pyrimidin-4(5H)-one] | 0.61 | 0.91 |  | 
CN(C)c1nc2c(c(CF)nn2C(c2ccc(C(C)(F)F)cc2)C2CC2)c(=O)[nH]1 (single isomer, unassigned) [Example 213, (S)- or (R)-1-(Cyclopropyl(4-(1,1-difluoroethyl)phenyl)methyl)-6-(dimethylamino)-3-(fluoromethyl)-1H-pyrazolo[3,4-d]pyrimidin-4(5H)-one] | 0.053 | 0.075 |  | 
CCC(c1ccc(C(C)(F)F)cc1F)n1nc(CF)c2c(=O)[nH]c(N(C)C)nc21 (single isomer, unassigned) [Example 214, (R)- or (S)-1-(1-(4-(1,1-Difluoroethyl)-2-fluorophenyl)propyl)-6-(dimethylamino)-3-(fluoromethyl)-1H-pyrazolo[3,4-d]pyrimidin-4(5H)-one] | 0.045 | 0.05 |  | 
CCC(c1ccc(C(C)(F)F)c(F)c1)n1nc(CF)c2c(=O)[nH]c(N(C)C)nc21 (single isomer, unassigned) [Example 216, (R)- or (S)-1-(1-(4-(1,1-Difluoroethyl)-3-fluorophenyl)propyl)-6-(dimethylamino)-3-(fluoromethyl)-1H-pyrazolo[3,4-d]pyrimidin-4(5H)-one] | 1.1 | 1.4 |  | 
CCC(c1ccc(C(C)(F)F)c(F)c1)n1nc(CF)c2c(=O)[nH]c(N(C)C)nc21 (single isomer, unassigned) [Example 217, (S)- or (R)-1-(1-(4-(1,1-Difluoroethyl)-3-fluorophenyl)propyl)-6-(dimethylamino)-3-(fluoromethyl)-1H-pyrazolo[3,4-d]pyrimidin-4(5H)-one] | 0.016 | 0.027 |  | 
CC(C)C(c1ccc(C(C)(F)F)c(F)c1)n1nc(CF)c2c(=O)[nH]c(N(C)C)nc21 (single isomer, unassigned) [Example 218, (R)- or (S)-1-(1-(4-(1,1-Difluoroethyl)-3-fluorophenyl)-2-methylpropyl)-6-(dimethylamino)-3-(fluoromethyl)-1H-pyrazolo[3,4-d]pyrimidin-4(5H)-one] | 0.16 | 0.21 |  | 
CC(C)C(c1ccc(C(C)(F)F)c(F)c1)n1nc(CF)c2c(=O)[nH]c(N(C)C)nc21 (single isomer, unassigned) [Example 219, (S)- or (R)-1-(1-(4-(1,1-Difluoroethyl)-3-fluorophenyl)-2-methylpropyl)-6-(dimethylamino)-3-(fluoromethyl)-1H-pyrazolo[3,4-d]pyrimidin-4(5H)-one] | 0.022 | 0.03 |  | 
CC(C)C(c1ccc(C(F)(F)F)c(F)c1)n1nc(CF)c2c(=O)[nH]c(N(C)C)nc21 (single isomer, unassigned) [Example 221, (S)- or (R)-6-Dimethylamino)-1-(1-(3-fluoro-4-trifluoromethyl)phenyl)-2-methylpropyl)-3-(fluoromethyl)-1H-pyrazolo[3,4-d]pyrimidin-4(5H)-one] | 0.046 | 0.067 |  | 
CCC(c1ccc(C(F)(F)F)c(F)c1)n1nc(CF)c2c(=O)[nH]c(N(C)C)nc21 (single isomer, unassigned) [Example 222, (R)- or (S)-6-(Dimethylamino)-1-(1-(3-fluoro-4-(trifluoromethyl)phenyl)propyl)-3-(fluoromethyl)-1H-pyrazolo[3,4-d]pyrimidin-4(5H)-one] | 0.044 | 0.063 |  | 
CC(c1ccc(C(F)(F)F)c(F)c1)n1nc(CC(F)(F)F)c2c(=O)[nH]c(O)nc21 (single isomer, unassigned) [Example 235, (S)- or (R)-1-(1-(3-Fluoro-4-(triduoromethyl)phenyl)ethyl)-6-hydroxy-3-(2,2,2-trifluoroethyl)-1H-pyrazolo[3,4-d]pyrimidin-4(5H)-one] | 1.4 | 1.5 |  | 
CC(c1ccc(C(C)(C)C)cc1)n1nc(CC(F)(F)F)c2c(=O)[nH]c(O)nc21 (single isomer, unassigned) [Example 236, (R)- or (S)-1-(1-(4-tert-Butylphenyl)ethyl)-6-hydroxy-3-(2,2,2-trifluoroethyl)-1H-pyrazolo[3,4-d]pyrimidin-4(5H)-one] | 3.4 | 5 |  | 
O=c1[nH]c(O)nc2c1c(CC(F)(F)F)nn2C(c1ccc(C(F)(F)F)c(F)c1)C1CC1 (single isomer, unassigned) [Example 238, (R)- or (S)-1-(Cyclopropyl(3-fluoro-4-(trifluoromethyl)phenyl)methyl)-6-hydroxy-3-(2,2,2-trifluoroethyl)-1H-pyrazolo[3,4-d]pyrimidin-4(5H)-one] | 5.8 | 7.1 |  | 
CC(C)C(c1ccc(C(F)(F)F)cc1)n1nc(CC(F)(F)F)c2c(=O)[nH]c(O)nc21 (single isomer, unassigned) [Example 240, (R)- or (S)-6-Hxdroxy-1-(2-methyl-1-(4-(trifluoromethyl)phenyl)propyl)-3-(2,2,2-trifluoroethyl)-1H-pyrazolo[3,4-d]pyrimidin-4(5H)-one] | 8 | 11 |  | 
CC1(C(c2ccc(C(F)(F)F)cc2)n2nc(CC(F)(F)F)c3c(=O)[nH]c(O)nc32)CC1 (single isomer, unassigned) [Example 244, (R)- or (S)-6-Hydroxy-1-((1-methylcyclopropyl)(4-(trifluoromethyl)phenyl)methyl)-3-(2,2,2-trifluoroethyl)-1H-pyrazolo[3,4-d]pyrimidin-4(5H)-one] | 21 | 21 |  | 
CC(C)(C)c1ccc(C(C2CC2)n2nc(CC(F)(F)F)c3c(=O)[nH]c(O)nc32)cc1 (single isomer, unassigned) [Example 250, (R)- or (S)-1-((4-tert-Butylphenyl)(cyclopropyl)methyl)-6-hydroxy-3-(2,2,2-trifluoroethyl)-1H-pyrazolo(3,4-d]pyrimidin-4(5H)-one] | 27 | 26 |  | 
O=c1[nH]c(O)nc2c1c(CC(F)(F)F)nn2C(c1ccc(OC(F)(F)F)c(F)c1)C1CC1 (single isomer, unassigned) [Example 252, (R)- or (S)-1-(Cyclopropyl(3-fluoro-4-(trifluoromethoxy)phenyl)methyl)-6-hydroxy-3-(2,2,2-trifluoroethyl)-1H-pyrazolo[3,4-d]pyrimidin-4(5H)-one] | 73 | 68 |  | 
CC(c1ccc(C(F)(F)F)cc1)n1nc(C(F)(F)F)c2c(=O)[nH]c(O)nc21 (single isomer, unassigned) [Example 254, (R)- or (S)-6-Hydroxy-3-(trifluoromethyl)-1-(1-(4-(trifluoromethyl)phenyl)ethyl)-1H-pyrazolo[3,4-d]pyrimidin-4(5H)-one] | 121 | 102 |  | 
CC(c1ccc(C(F)(F)F)cc1)n1nc(C(F)(F)F)c2c(=O)[nH]c(O)nc21 (single isomer, unassigned) [Example 255, (S)- or (R)-6-Hydroxy-3-(trifluoromethyl)-1-(1-(4-(trifluoromethyl)phenyl)ethyl)-1H-pyrazolo[3,4-d]pyrimidin-4(5H)-one] | 2.4 | 3.7 |  | 
CC(c1ccc(C(F)(F)F)cc1)n1nc(CC(F)(F)F)c2c(=O)[nH]c(O)nc21 (single isomer, unassigned) [Example 256, (R)- or (S)-6-Hydroxy-3-(2,2,2-trifluoroethyl)-1-{1-[4-(trifluoromethyl)phenyl]ethyl}-1,5-dihydro-4H-pyrazolo[3,4-d]pyrimidin-4-one] |  |  | 126 | 166
CC(c1ccc(C(F)(F)F)cc1)n1nc(CC(F)(F)F)c2c(=O)[nH]c(O)nc21 (single isomer, unassigned) [Example 257, (S)- or (R)-6-Hydroxy-3-(2,2,2-trifluoroethyl)-1-{1-(4-(trifluoromethyl)phenyl]ethyl}-1,5-dihydro-4H-pyrazolo[3,4-d]pyrimidin-4-one] | 2 | 1.5 | 0.68 | 0.96
CC(C)C(c1ccc(C(F)(F)F)c(F)c1)n1nc(CC(F)(F)F)c2c(=O)[nH]c(O)nc21 (single isomer, unassigned) [Example 258] | 9.7 | 10 |  | 
